Source: PMC8406311, “Change in Cofactor Specificity of Oxidoreductases by Adaptive Evolution of an Escherichia coli NADPH-Auxotrophic Strain” (mBio, 2021)
Changes are numbered by the printed parent chain.

How the values were obtained:
Format in all cases: biochemical
[1] = target: T1, MaeA (NAD+-dependent malic enzyme) (Escherichia coli, UniProt P26616); assay: NAD(P)H formation at […] nm, Michaelis-Menten fit; conditions: 50 mM Tris HCl pH 7.5, 10 mM MgCl2, 30 °C, apparent
T1 construct: N-terminal His-tag (modified pET22b(+)), expressed in E. coli BL21(DE3), HisTrap purified
T1 sequence (P26616 1-565): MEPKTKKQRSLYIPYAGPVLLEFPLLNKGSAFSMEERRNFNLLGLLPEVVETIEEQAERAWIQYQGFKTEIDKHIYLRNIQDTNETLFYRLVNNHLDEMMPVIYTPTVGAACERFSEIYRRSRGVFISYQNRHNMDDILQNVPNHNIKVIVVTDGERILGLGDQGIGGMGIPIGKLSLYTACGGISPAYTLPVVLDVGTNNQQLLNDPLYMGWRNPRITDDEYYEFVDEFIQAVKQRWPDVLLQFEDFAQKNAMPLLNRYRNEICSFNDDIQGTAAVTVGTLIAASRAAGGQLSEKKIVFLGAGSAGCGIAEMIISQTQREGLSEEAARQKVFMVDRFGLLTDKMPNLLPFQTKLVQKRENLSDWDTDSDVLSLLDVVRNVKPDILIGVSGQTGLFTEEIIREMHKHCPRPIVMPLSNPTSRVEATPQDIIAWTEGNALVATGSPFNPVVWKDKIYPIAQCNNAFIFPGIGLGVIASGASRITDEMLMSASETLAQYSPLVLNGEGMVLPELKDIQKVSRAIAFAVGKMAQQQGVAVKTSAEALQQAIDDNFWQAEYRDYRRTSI

[2] = target: T2, MaeA (NAD+-dependent malic enzyme) (Escherichia coli, UniProt P26616, L176V/D336N); assay: NAD(P)H formation at […] nm, Michaelis-Menten fit; conditions: 50 mM Tris HCl pH 7.5, 10 mM MgCl2, 30 °C; L-malate at 6 to 10 times its KM; apparent
T2 construct: N-terminal His-tag (modified pET22b(+)), expressed in E. coli BL21(DE3), HisTrap purified
T2 sequence (P26616 1-565 L176V/D336N): T1 sequence (P26616 1-565) with L176V, D336N

[3] = target: T3, MaeA (NAD+-dependent malic enzyme) (Escherichia coli, UniProt P26616, D336N); assay: NAD(P)H formation at […] nm, Michaelis-Menten fit; conditions: 50 mM Tris HCl pH 7.5, 10 mM MgCl2, 30 °C; L-malate at 6 to 10 times its KM; apparent
T3 construct: N-terminal His-tag (modified pET22b(+)), expressed in E. coli BL21(DE3), HisTrap purified
T3 sequence (P26616 1-565 D336N): T1 sequence (P26616 1-565) with D336N

[4] = target: T4, Lpd (dihydrolipoamide dehydrogenase; lipoamide dehydrogenase) (Escherichia coli, UniProt P0A9P0, E205A); assay: NAD(P)H formation at […] nm, nonlinear fit of initial rates; conditions: 100 mM Na phosphate, 100 mM KCl, 8 mM TCEP, pH 7.6, room temperature; 4 mM dihydrolipoamide; apparent
T4 construct: gene lpdA; N-terminal His-tag (modified pET22b(+)), expressed in E. coli BL21(DE3) Codon+, HisTrap and gel filtration

[5] = target: T5, MaeA (NAD+-dependent malic enzyme) (Escherichia coli, UniProt P26616, I283N/D336A); assay: NAD(P)H formation at […] nm, Michaelis-Menten fit; conditions: 50 mM Tris HCl pH 7.5, 10 mM MgCl2, 30 °C; L-malate at 6 to 10 times its KM; apparent
T5 construct: N-terminal His-tag (modified pET22b(+)), expressed in E. coli BL21(DE3), HisTrap purified
T5 sequence (P26616 1-565 I283N/D336A): T1 sequence (P26616 1-565) with I283N, D336A

[6] = target: T6, Lpd (dihydrolipoamide dehydrogenase; lipoamide dehydrogenase) (Escherichia coli, UniProt P0A9P0, E205G); assay: NAD(P)H formation at […] nm, nonlinear fit of initial rates; conditions: 100 mM Na phosphate, 100 mM KCl, 8 mM TCEP, pH 7.6, room temperature; 4 mM dihydrolipoamide; apparent
T6 construct: gene lpdA; N-terminal His-tag (modified pET22b(+)), expressed in E. coli BL21(DE3) Codon+, HisTrap and gel filtration

[7] = target: T7, Lpd (dihydrolipoamide dehydrogenase; lipoamide dehydrogenase) (Escherichia coli, UniProt P0A9P0); assay: as above; conditions: 100 mM Na phosphate, 100 mM KCl, 8 mM TCEP, pH 7.6, room temperature, apparent
T7 construct: gene lpdA; N-terminal His-tag (modified pET22b(+)), expressed in E. coli BL21(DE3) Codon+, HisTrap and gel filtration

[8] = L-malate at 6 to 10 times its KM

T7 sequence (P0A9P0 2-474): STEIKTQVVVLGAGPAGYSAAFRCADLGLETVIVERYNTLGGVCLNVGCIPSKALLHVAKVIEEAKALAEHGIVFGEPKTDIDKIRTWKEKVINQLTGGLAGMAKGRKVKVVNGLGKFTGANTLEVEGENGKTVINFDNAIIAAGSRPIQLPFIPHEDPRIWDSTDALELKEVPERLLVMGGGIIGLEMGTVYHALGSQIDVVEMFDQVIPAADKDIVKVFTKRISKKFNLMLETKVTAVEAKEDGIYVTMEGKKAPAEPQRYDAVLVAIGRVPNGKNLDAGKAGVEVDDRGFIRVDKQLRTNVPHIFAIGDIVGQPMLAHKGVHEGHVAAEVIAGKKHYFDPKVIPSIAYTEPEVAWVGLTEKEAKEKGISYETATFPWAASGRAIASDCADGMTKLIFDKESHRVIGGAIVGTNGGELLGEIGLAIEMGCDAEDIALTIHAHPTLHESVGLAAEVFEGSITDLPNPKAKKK
T4 sequence (P0A9P0 2-474 E205A): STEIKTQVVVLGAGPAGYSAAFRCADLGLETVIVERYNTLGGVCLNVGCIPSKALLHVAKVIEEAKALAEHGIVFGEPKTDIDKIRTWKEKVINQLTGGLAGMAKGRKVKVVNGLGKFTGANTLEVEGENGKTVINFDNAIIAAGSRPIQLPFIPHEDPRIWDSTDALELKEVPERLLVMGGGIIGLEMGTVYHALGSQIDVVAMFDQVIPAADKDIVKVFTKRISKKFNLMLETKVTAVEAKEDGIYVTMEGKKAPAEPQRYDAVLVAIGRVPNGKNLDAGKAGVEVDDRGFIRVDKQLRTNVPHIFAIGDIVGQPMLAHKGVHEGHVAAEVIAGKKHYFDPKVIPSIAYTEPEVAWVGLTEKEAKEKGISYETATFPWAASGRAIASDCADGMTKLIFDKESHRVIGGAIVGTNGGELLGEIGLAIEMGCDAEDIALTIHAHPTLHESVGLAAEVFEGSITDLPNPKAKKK
T6 sequence (P0A9P0 2-474 E205G): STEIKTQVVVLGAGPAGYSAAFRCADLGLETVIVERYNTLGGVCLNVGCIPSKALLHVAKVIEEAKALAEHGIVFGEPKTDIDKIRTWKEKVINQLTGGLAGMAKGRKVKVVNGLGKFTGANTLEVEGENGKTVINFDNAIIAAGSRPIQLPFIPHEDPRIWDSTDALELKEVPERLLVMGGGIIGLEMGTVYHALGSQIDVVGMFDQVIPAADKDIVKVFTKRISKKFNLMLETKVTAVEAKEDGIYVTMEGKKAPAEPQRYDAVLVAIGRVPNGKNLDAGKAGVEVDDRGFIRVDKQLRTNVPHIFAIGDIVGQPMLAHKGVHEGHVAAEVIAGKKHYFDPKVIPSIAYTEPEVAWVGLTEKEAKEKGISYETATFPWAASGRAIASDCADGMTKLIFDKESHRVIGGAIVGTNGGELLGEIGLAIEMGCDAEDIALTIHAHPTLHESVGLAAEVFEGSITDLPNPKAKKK

SMILES	Km ([1]; other substrates at 6 to 10 times their KM) [µM]	Km [2] [µM]	Km [3] [µM]	Km [4] [µM]	Km [5] [µM]	Km [1, 8] [µM]	Km [6] [µM]	Km ([7]; 4 mM dihydrolipoamide) [µM]	Km [7] [µM]
O=C(O)C[C@H](O)C(=O)O [L-malate]	630 ± 40	–	–	–	–	–	–	–	–
NC(=O)c1ccc[n+]([C@@H]2O[C@H](COP(=O)(O)OP(=O)(O)OC[C@H]3O[C@@H](n4cnc5c(N)ncnc54)[C@H](OP(=O)(O)O)[C@@H]3O)[C@@H](O)[C@H]2O)c1 [NADP^+]	–	16 ± 1	91 ± 10	2480 ± 690	13	3600 ± 400	3480 ± 1030	–	–
NC(=O)c1ccc[n+]([C@@H]2O[C@H](COP(=O)(O)OP(=O)(O)OC[C@H]3O[C@@H](n4cnc5c(N)ncnc54)[C@H](O)[C@@H]3O)[C@@H](O)[C@H]2O)c1 [NAD^+]	–	270 ± 30	1500 ± 200	6350 ± 380	270 ± 30	100 ± 20	9490 ± 1820	440 ± 60	–
NC(=O)CCCC[C@@H](S)CCS [dihydrolipoamide]	–	–	–	–	–	–	–	–	180 ± 20
